Data taken from patent publication US20020076827A1, “Methods for diagnosing thyroid conditions and for monitoring thyroxine therapy” (priority 2000, published 2002).
One block for each compound: values may come before it.

Tests used:
[1] = in vivo; cited from earlier work
[2] = Stability of urine standard sub-pools measured monthly; type: physicochemical; details: 2 ml vials stored at -20 degrees Centigrade
Procedure: These sub-pools were aliquoted into 2 ml vials and stored as above.

[3] = Stability of urinary T3 for time and temperature; type: physicochemical
[4] = Stability of synthesized T3-sulfate; type: physicochemical; details: when not stored in liquid form in appropriate buffer
Text: Bacterial sulfatase (Sigma) was used as directed. We found little evidence of the presence of thyroxine sulfate in urine in our preliminary studies but significant levels of triiodothyronine-sulfate were present. To confirm our data, triodothyronine sulfate was synthesized by methods of Levitz (personal communication) for radioactive estrone glucuronide. T3-sulfate gave a unique spectrum with a major absorption maximum at 362 nm as compared to triiodothyronine whose major absorption maxima occurred at 318.

[5] = Conjugates of T4 and T3 in patients' urine by enzymatic hydrolysis and IMx measurement; parameters: species or system human
Procedure: Thyroxine glucuronidate in urine was hydrolysed with Sigma bacterial β-glucuronidase. The time interval for hydrolysis was tested from 1 to 24 hours under the conditions recommended by Sigma. It was also hydrolyzed by 0.2 N hydrochloric acid at pH 2 over a period of less than one hour.
Bacterial sulfatase (Sigma) was used as directed. […] To confirm our data, triodothyronine sulfate was synthesized by methods of Levitz (personal communication) for radioactive estrone glucuronide.

[6] = stored with at least 20% (v/v) of buffer

Compound: N[C@@H](Cc1ccc(Oc2cc(I)c(O)c(I)c2)c(I)c1)C(=O)O [RT3]
metabolic clearance rate [1]: 111 L/d/70 kg

Compound: N[C@@H](Cc1cc(I)c(Oc2ccc(O)c(I)c2)c(I)c1)C(=O)O [T3, O-(4-hydroxy-3-iodophenyl)-3,5-diiodo-L-tyrosine]
concentration in urine standard sub-pools over time [2]: unchanged for over a year | stability of T3 standards ([3]; all conditions of time and temperature): stable under all conditions | stability of urinary T3, frozen state [3, 6]: stable for months | stability of urinary T3, room temperature [3, 6]: over 3 days | stability of urinary T3, native state ([3]; without buffer, frozen and room temperature): deteriorated in both environments at an accelerated rate | metabolic clearance rate [1]: 24 L/d/70 kg

Compound: N[C@@H](Cc1cc(I)c(Oc2ccc(OS(=O)(=O)O)c(I)c2)c(I)c1)C(=O)O [T3-sulfate, triiodothyronine-sulfate]
stability of T3-sulfate [4]: unstable and rapidly deteriorated | urinary concentration of conjugate relative to parent compound ([5]; human urine, before and after hydrolysis): about one-third to one-half

form of conjugation in urine [5]: almost exclusively as a glucuronide
Compound: NC(Cc1cc(I)c(Oc2cc(I)c(O)c(I)c2)c(I)c1)C(=O)O (centres unmarked) [T4, O-(4-hydroxy-3,5-didiodophenyl)-3,5-diiodotyrosine]
metabolic clearance rate [1]: 1.2 L/d/70 kg
